Assay results taken from ChEMBL document CHEMBL1201862, “PubChem BioAssay data set” (2004).
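Following 48 hours of exposure in 96-well plates, responses at five concentrations were used to interpolate endpoints linearly. GI50 is the concentration that inhibits growth by half.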 The source made the active and inactive calls. No stated cut-off is given here; in the data, active = GI50 up to about 1.1 µM and inactive = higher. *1 amine or outer side, *2 acyl side, *3 side chain or, on linkers, in order; H or OH if unused. Where a SMILES comes first, the peptide text is derived from it. Bridges are numbered along the chain shown (N, C = ends). Roman numbers before positions name the chains, in order. [ ]: non-standard residue; d: D form. Actinocin(1to9) = Cc1c2oc3c(C)ccc(C(=O)[*:2])c3nc-2c(C(=O)[*:1])c(N)c1=O; NMeV = CN[CH](C(=O)O)C(C)C; Sar = CNCC(=O)O

Assays:
Test in all cases: growth of human tumour cells (NCI), 48 h
BT-549 = system: BT-549
EKVX = system: EKVX
HOP-92 = system: HOP-92
Hs-578T = system: Hs-578T
K562 = system: K562
KM12 = system: KM12
MDA-MB-231 = system: MDA-MB-231
MDA-MB-435 = system: MDA-MB-435
NCI-H23 = system: NCI-H23
NCI-H522 = system: NCI-H522
PC-3 = system: PC-3
RPMI-8226 = system: RPMI-8226
RXF 393 = system: RXF 393
SK-MEL-28 = system: SK-MEL-28
SK-MEL-2 = system: SK-MEL-2
SK-MEL-5 = system: SK-MEL-5
SW-620 = system: SW-620
TK-10 = system: TK-10
U-251 = system: U-251
UACC-62 = system: UACC-62

Structure (SMILES): O=C(CSc1ncnc2[nH]cnc12)c1ccccc1
- GI50 (BT-549): > 100 µM (inactive)
- GI50 (EKVX): > 100 µM (inactive)
- GI50 (HOP-92): 50.2 µM (inactive)
- GI50 (Hs-578T): > 100 µM (inactive)
- GI50 (K562): 41.3 µM (inactive)
- GI50 (KM12): > 41.1 µM (inactive)
- GI50 (MDA-MB-231): > 100 µM (inactive)
- GI50 (MDA-MB-435): > 100 µM (inactive)
- GI50 (NCI-H23): > 100 µM (inactive)
- GI50 (NCI-H522): 47.4 µM (inactive)
- GI50 (PC-3): > 100 µM (inactive)
- GI50 (RPMI-8226): > 64.3 µM (inactive)
- GI50 (RXF 393): > 76.2 µM (inactive)
- GI50 (SK-MEL-28): > 100 µM (inactive)
- GI50 (SK-MEL-2): > 43.2 µM (inactive)
- GI50 (SK-MEL-5): 86.3 µM (inactive)
- GI50 (SW-620): > 100 µM (inactive)
- GI50 (TK-10): > 66.7 µM (inactive)
- GI50 (U-251): > 100 µM (inactive)
- GI50 (UACC-62): > 100 µM (inactive)

Structure (SMILES): O=C(O)c1cc2ccc3ccccc3c2oc1=O
- GI50 (BT-549): > 100 µM (inactive)
- GI50 (EKVX): 31.3 µM (inactive)
- GI50 (HOP-92): > 100 µM (inactive)
- GI50 (Hs-578T): > 100 µM (inactive)
- GI50 (K562): > 100 µM (inactive)
- GI50 (KM12): > 100 µM (inactive)
- GI50 (MDA-MB-231): > 100 µM (inactive)
- GI50 (MDA-MB-435): > 100 µM (inactive)
- GI50 (NCI-H23): > 100 µM (inactive)
- GI50 (NCI-H522): > 100 µM (inactive)
- GI50 (PC-3): > 100 µM (inactive)
- GI50 (RPMI-8226): > 100 µM (inactive)
- GI50 (RXF 393): > 100 µM (inactive)
- GI50 (SK-MEL-28): > 100 µM (inactive)
- GI50 (SK-MEL-2): > 100 µM (inactive)
- GI50 (SK-MEL-5): > 100 µM (inactive)
- GI50 (SW-620): > 100 µM (inactive)
- GI50 (TK-10): > 100 µM (inactive)
- GI50 (U-251): > 100 µM (inactive)
- GI50 (UACC-62): > 100 µM (inactive)

Structure (SMILES): CC(C)NC(=O)OCc1c(COC(=O)NC(C)C)c(-c2cc[n+](COC(=O)C3CC3)cc2)n2c1CCC2
- GI50 (BT-549): > 100 µM (inactive)
- GI50 (EKVX): > 100 µM (inactive)
- GI50 (HOP-92): > 100 µM (inactive)
- GI50 (Hs-578T): > 100 µM (inactive)
- GI50 (K562): > 100 µM (inactive)
- GI50 (KM12): > 100 µM (inactive)
- GI50 (MDA-MB-231): > 100 µM (inactive)
- GI50 (MDA-MB-435): > 100 µM (inactive)
- GI50 (NCI-H23): > 100 µM (inactive)
- GI50 (NCI-H522): > 100 µM (inactive)
- GI50 (PC-3): > 100 µM (inactive)
- GI50 (RPMI-8226): > 100 µM (inactive)
- GI50 (RXF 393): 50.1 µM (inactive)
- GI50 (SK-MEL-28): > 100 µM (inactive)
- GI50 (SK-MEL-2): > 100 µM (inactive)
- GI50 (SK-MEL-5): > 100 µM (inactive)
- GI50 (SW-620): > 100 µM (inactive)
- GI50 (TK-10): > 100 µM (inactive)
- GI50 (U-251): > 100 µM (inactive)
- GI50 (UACC-62): > 100 µM (inactive)

Structure (SMILES): CCC(C(=O)C(=O)C(CC)P1(=O)OC(C)(C)CN1C(C)(C)C)P1(=O)OC(C)(C)CN1C(C)(C)C (stereo not given)
- GI50 (BT-549): > 100 µM (inactive)
- GI50 (EKVX): > 100 µM (inactive)
- GI50 (HOP-92): 45.9 µM (inactive)
- GI50 (Hs-578T): > 100 µM (inactive)
- GI50 (K562): 31.8 µM (inactive)
- GI50 (KM12): > 100 µM (inactive)
- GI50 (MDA-MB-231): > 100 µM (inactive)
- GI50 (MDA-MB-435): > 100 µM (inactive)
- GI50 (NCI-H23): > 100 µM (inactive)
- GI50 (NCI-H522): > 100 µM (inactive)
- GI50 (PC-3): > 100 µM (inactive)
- GI50 (RPMI-8226): 43.6 µM (inactive)
- GI50 (RXF 393): > 100 µM (inactive)
- GI50 (SK-MEL-28): > 100 µM (inactive)
- GI50 (SK-MEL-2): > 100 µM (inactive)
- GI50 (SK-MEL-5): > 100 µM (inactive)
- GI50 (SW-620): > 100 µM (inactive)
- GI50 (TK-10): > 100 µM (inactive)
- GI50 (U-251): > 100 µM (inactive)
- GI50 (UACC-62): > 100 µM (inactive)

Structure (SMILES): O=C(C(=O)n1ccc2ccccc21)c1c[nH]c2ccccc12
- GI50 (BT-549): > 10 µM (inactive)
- GI50 (EKVX): > 10 µM (inactive)
- GI50 (HOP-92): > 10 µM (inactive)
- GI50 (Hs-578T): > 10 µM (inactive)
- GI50 (K562): > 10 µM (inactive)
- GI50 (KM12): > 10 µM (inactive)
- GI50 (MDA-MB-231): > 10 µM (inactive)
- GI50 (MDA-MB-435): > 10 µM (inactive)
- GI50 (NCI-H23): > 10 µM (inactive)
- GI50 (NCI-H522): > 10 µM (inactive)
- GI50 (PC-3): > 10 µM (inactive)
- GI50 (RPMI-8226): > 10 µM (inactive)
- GI50 (RXF 393): > 10 µM (inactive)
- GI50 (SK-MEL-28): > 10 µM (inactive)
- GI50 (SK-MEL-2): > 10 µM (inactive)
- GI50 (SK-MEL-5): > 10 µM (inactive)
- GI50 (SW-620): > 10 µM (inactive)
- GI50 (TK-10): > 10 µM (inactive)
- GI50 (U-251): > 10 µM (inactive)
- GI50 (UACC-62): > 10 µM (inactive)

Structure (SMILES): Cc1cccc(-c2cc(O)c3cc(C)cnc3n2)c1
- GI50 (BT-549): 0.292 µM (active)
- GI50 (EKVX): 0.705 µM (active)
- GI50 (HOP-92): 11.7 µM (inactive)
- GI50 (Hs-578T): 0.244 µM (active)
- GI50 (K562): 0.0411 µM (active)
- GI50 (KM12): 0.0869 µM (active)
- GI50 (MDA-MB-231): 0.518 µM (active)
- GI50 (MDA-MB-435): 0.0185 µM (active)
- GI50 (NCI-H23): 0.344 µM (active)
- GI50 (NCI-H522): 0.0955 µM (active)
- GI50 (PC-3): 0.189 µM (active)
- GI50 (RPMI-8226): 0.239 µM (active)
- GI50 (RXF 393): 0.229 µM (active)
- GI50 (SK-MEL-28): 1.63 µM (inactive)
- GI50 (SK-MEL-2): 0.224 µM (active)
- GI50 (SK-MEL-5): 0.12 µM (active)
- GI50 (SW-620): 0.0475 µM (active)
- GI50 (TK-10): 5.52 µM (inactive)
- GI50 (U-251): 0.147 µM (active)
- GI50 (UACC-62): 0.331 µM (active)

Structure (SMILES): CCC(C)C1NC(=O)C(NC(=O)c2c3nc4c(C(=O)NC5C(=O)NC(C(C)C)C(=O)N6CCCC6C(=O)N(C)CC(=O)N(C)C(C(C)C)C(=O)OC5C)ccc(C)c4oc-3c(C)c(=O)c2N)C(C)OC(=O)C(C(C)C)N(C)C(=O)CN(C)C(=O)C2CCCN2C1=O (stereo not given) (I: TIP[Sar][NMeV] / II: TVP[Sar][NMeV]; ester I:1-I:C, II:1-II:C; linker I:N-II:N via Actinocin(1to9); configuration not given here)
- GI50 (BT-549): 0.00247 µM (active)
- GI50 (EKVX): 0.00377 µM (active)
- GI50 (HOP-92): 0.00161 µM (active)
- GI50 (Hs-578T): 0.00546 µM (active)
- GI50 (K562): < 0.0001 µM (active)
- GI50 (KM12): 0.00016 µM (active)
- GI50 (MDA-MB-231): 0.000173 µM (active)
- GI50 (MDA-MB-435): 0.000513 µM (active)
- GI50 (NCI-H23): 0.000697 µM (active)
- GI50 (NCI-H522): < 0.0001 µM (active)
- GI50 (PC-3): 0.000346 µM (active)
- GI50 (RPMI-8226): < 0.0001 µM (active)
- GI50 (RXF 393): 0.01 µM (active)
- GI50 (SK-MEL-28): 0.000733 µM (active)
- GI50 (SK-MEL-2): 0.00172 µM (active)
- GI50 (SK-MEL-5): < 0.0001 µM (active)
- GI50 (SW-620): < 0.0001 µM (active)
- GI50 (TK-10): 0.0137 µM (active)
- GI50 (U-251): < 0.0001 µM (active)
- GI50 (UACC-62): 0.00589 µM (active)

Structure (SMILES): O=C(O)[C@@H]1CCCN1 [PROLINE]
- GI50 (BT-549): > 100 µM (inactive)
- GI50 (EKVX): > 100 µM (inactive)
- GI50 (HOP-92): > 100 µM (inactive)
- GI50 (Hs-578T): > 100 µM (inactive)
- GI50 (K562): > 100 µM (inactive)
- GI50 (KM12): > 100 µM (inactive)
- GI50 (MDA-MB-231): > 100 µM (inactive)
- GI50 (MDA-MB-435): > 100 µM (inactive)
- GI50 (NCI-H23): > 100 µM (inactive)
- GI50 (NCI-H522): > 100 µM (inactive)
- GI50 (PC-3): > 100 µM (inactive)
- GI50 (RPMI-8226): > 100 µM (inactive)
- GI50 (RXF 393): > 100 µM (inactive)
- GI50 (SK-MEL-28): > 100 µM (inactive)
- GI50 (SK-MEL-2): > 100 µM (inactive)
- GI50 (SK-MEL-5): > 100 µM (inactive)
- GI50 (SW-620): > 100 µM (inactive)
- GI50 (TK-10): > 100 µM (inactive)
- GI50 (U-251): > 100 µM (inactive)
- GI50 (UACC-62): > 100 µM (inactive)
